Assay results: US8952024B2, “Herbicidal pyrimidone derivatives” (E I du Pont de Nemours and Company, priority 2009, dated 2015)

What was measured:
Assay type in all cases: in vivo
[1] = tested on: chickweed (Stellaria media); assay: Test B postemergence plant response; settings: Postemergence
Method in brief: (§1)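 Visual ratings from 0 (no effect) to 100 (complete control), made against controls 13–15 days after treatment, kept in a greenhouse. Compounds were applied postemergence to potted plants at the 1- to 4-leaf stage (2–18 cm).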

[2] = tested on: canarygrass (Phalaris minor); assay: Test B postemergence plant response; settings: Postemergence
Method in brief: as §1

[3] = tested on: winter barley (Hordeum vulgare); assay: Test B postemergence plant response; settings: Postemergence
Method in brief: as §1

[4] = tested on: windgrass (Apera spica-venti); assay: Test B postemergence plant response; settings: Postemergence
Method in brief: as §1

[5] = tested on: large crabgrass (Digitaria sanguinalis); assay: Test A pre-/postemergence plant response; settings: for Crabgrass, Large plant response rating: visual injury, 0 to 100 scale (0 no effect, 100 complete control), approx. ten days
Method in brief: (§2)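 Both pre- and postemergence treatments are applied simultaneously, using chemicals formulated in a non-phytotoxic solvent mixture with surfactant. Postemergence plants are 2–10 cm high with one to two leaves. After approximately ten days in a greenhouse, injury is scored visually from 0 (none) to 100 (complete control) relative to untreated plants.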

[6] = tested on: velvetleaf (Abutilon theophrasti); assay: Test A pre-/postemergence plant response; settings: for Velvetleaf plant response rating: visual injury, 0 to 100 scale (0 no effect, 100 complete control), approx. ten days
Method in brief: as §2

[7] = tested on: pigweed (Amaranthus retroflexus); assay: Test A pre-/postemergence plant response; settings: for Pigweed plant response rating: visual injury, 0 to 100 scale (0 no effect, 100 complete control), approx. ten days
Method in brief: as §2

[8] = tested on: morningglory (Ipomoea spp.); assay: Test A pre-/postemergence plant response; settings: for Morningglory plant response rating: visual injury, 0 to 100 scale (0 no effect, 100 complete control), approx. ten days
Method in brief: as §2

[9] = tested on: wheat (Triticum aestivum); assay: Test A pre-/postemergence plant response; settings: for Wheat plant response rating: visual injury, 0 to 100 scale (0 no effect, 100 complete control), approx. ten days
Method in brief: as §2

[10] = tested on: barnyardgrass (Echinochloa crus-galli); assay: Test A pre-/postemergence plant response; settings: for Barnyardgrass plant response rating: visual injury, 0 to 100 scale (0 no effect, 100 complete control), approx. ten days
Method in brief: as §2

corn (Zea mays) = assay: Test A pre-/postemergence plant response; settings: for Corn plant response rating: visual injury, 0 to 100 scale (0 no effect, 100 complete control), approx. ten days
Method in brief: as §2

[11] = tested on: giant foxtail (Setaria faberii); assay: Test A pre-/postemergence plant response; settings: for Foxtail, Giant plant response rating: visual injury, 0 to 100 scale (0 no effect, 100 complete control), approx. ten days
Method in brief: as §2

[12] = 31 g ai/ha, 0 to 100 scale (0 no effect, 100 complete control)
[13] = 62 g ai/ha, scale 0 to 100 (0 no effect, 100 complete control)
[14] = 125 g ai/ha, scale 0 to 100 (0 no effect, 100 complete control)
[15] = 250 g ai/ha, scale 0 to 100 (0 no effect, 100 complete control), 13 to 15 days
[16] = Postemergence, 125 g ai/ha, 0 to 100 scale where 0 is no effect and 100 is complete control
[17] = Preemergence, 125 g ai/ha, 0 to 100 scale, 0 = no effect, 100 = complete control
[18] = Preemergence, 500 g ai/ha, 0 to 100 scale, 0 = no effect, 100 = complete control

COc1ccc(-n2c(-c3ccccc3)ncc(C(=O)C3=C(O)CCCC3=O)c2=O)cc1OC [Compound 218]
Plant response rating, Chickweed [1, 12]: 100 | Plant response rating, Chickweed [1, 13]: 100 | Plant response rating, Chickweed [1, 14]: 100 | Plant response rating, Chickweed [1, 15]: 100 | Plant response rating, Canarygrass [2, 12]: 0 | Plant response rating, Canarygrass [2, 13]: 0 | Plant response rating, Canarygrass [2, 14]: 0 | Plant response rating, Canarygrass [2, 15]: 5 | Plant response rating, Barley [3, 12]: 30 | Plant response rating, Barley [3, 13]: 30 | Plant response rating, Barley [3, 14]: 35 | Plant response rating, Barley [3, 15]: 35 | Plant response rating, Windgrass [4, 12]: 10 | Plant response rating, Windgrass [4, 13]: 20 | Plant response rating, Windgrass [4, 15]: 45 | Plant response rating, Crabgrass, Large [5, 16]: 20 | Crabgrass, Large plant response rating ([5]; Postemergence, 500 g ai/ha): 70 | Plant response rating, Crabgrass, Large [5, 17]: 10 | Plant response rating, Crabgrass, Large [5, 18]: 80 | Plant response rating, Velvetleaf [6, 16]: 100 | Velvetleaf plant response rating ([6]; Postemergence, 500 g ai/ha): 100 | Plant response rating, Velvetleaf [6, 17]: 50 | Plant response rating, Velvetleaf [6, 18]: 90 | Plant response rating, Pigweed [7, 16]: 100 | Pigweed plant response rating ([7]; Postemergence, 500 g ai/ha): 100 | Plant response rating, Pigweed [7, 17]: 20 | Plant response rating, Pigweed [7, 18]: 90 | Plant response rating, Morningglory [8, 16]: 80 | Morningglory plant response rating ([8]; Postemergence, 500 g ai/ha): 100 | Plant response rating, Morningglory [8, 17]: 0 | Plant response rating, Morningglory [8, 18]: 80 | Plant response rating, Wheat [9, 16]: 0 | Wheat plant response rating ([9]; Postemergence, 500 g ai/ha): 0 | Plant response rating, Wheat [9, 17]: 0 | Plant response rating, Wheat [9, 18]: 0 | Plant response rating, Barnyardgrass [10, 16]: 80 | Barnyardgrass plant response rating ([10]; Postemergence, 500 g ai/ha): 90 | Plant response rating, Barnyardgrass [10, 17]: 20 | Plant response rating, Barnyardgrass [10, 18]: 100 | Plant response rating, Corn (corn (Zea mays); [16]): 0 | Corn plant response rating (corn (Zea mays); Postemergence, 500 g ai/ha): 70 | Plant response rating, Corn (corn (Zea mays); [17]): 0 | Plant response rating, Corn (corn (Zea mays); [18]): 0 | Plant response rating, Foxtail, Giant [11, 16]: 40 | Foxtail, Giant plant response rating ([11]; Postemergence, 500 g ai/ha): 70 | Plant response rating, Foxtail, Giant [11, 17]: 0 | Plant response rating, Foxtail, Giant [11, 18]: 50

CCc1ccc(-n2c(-c3ccccc3)ncc(C(=O)C3=C(O)CCCC3=O)c2=O)cc1 [Compound 219]
Plant response rating, Chickweed [1, 12]: 100 | Plant response rating, Chickweed [1, 13]: 100 | Plant response rating, Chickweed [1, 14]: 100 | Plant response rating, Chickweed [1, 15]: 100 | Plant response rating, Canarygrass [2, 12]: 35 | Plant response rating, Canarygrass [2, 13]: 55 | Plant response rating, Canarygrass [2, 14]: 55 | Plant response rating, Canarygrass [2, 15]: 55 | Plant response rating, Barley [3, 12]: 0 | Plant response rating, Barley [3, 13]: 25 | Plant response rating, Barley [3, 14]: 30 | Plant response rating, Barley [3, 15]: 30 | Plant response rating, Windgrass [4, 12]: 35 | Plant response rating, Windgrass [4, 13]: 40 | Plant response rating, Windgrass [4, 15]: 85 | Plant response rating, Crabgrass, Large [5, 16]: 80 | Crabgrass, Large plant response rating ([5]; Postemergence, 500 g ai/ha): 100 | Plant response rating, Crabgrass, Large [5, 17]: 50 | Plant response rating, Crabgrass, Large [5, 18]: 100 | Plant response rating, Velvetleaf [6, 16]: 100 | Velvetleaf plant response rating ([6]; Postemergence, 500 g ai/ha): 100 | Plant response rating, Velvetleaf [6, 17]: 30 | Plant response rating, Velvetleaf [6, 18]: 90 | Plant response rating, Pigweed [7, 16]: 100 | Pigweed plant response rating ([7]; Postemergence, 500 g ai/ha): 100 | Plant response rating, Pigweed [7, 17]: 90 | Plant response rating, Pigweed [7, 18]: 100 | Plant response rating, Morningglory [8, 16]: 100 | Morningglory plant response rating ([8]; Postemergence, 500 g ai/ha): 100 | Plant response rating, Morningglory [8, 17]: 20 | Plant response rating, Morningglory [8, 18]: 80 | Plant response rating, Wheat [9, 16]: 0 | Wheat plant response rating ([9]; Postemergence, 500 g ai/ha): 30 | Plant response rating, Wheat [9, 17]: 0 | Plant response rating, Wheat [9, 18]: 20 | Plant response rating, Barnyardgrass [10, 16]: 90 | Barnyardgrass plant response rating ([10]; Postemergence, 500 g ai/ha): 90 | Plant response rating, Barnyardgrass [10, 17]: 40 | Plant response rating, Barnyardgrass [10, 18]: 100 | Plant response rating, Corn (corn (Zea mays); [16]): 0 | Corn plant response rating (corn (Zea mays); Postemergence, 500 g ai/ha): 30 | Plant response rating, Corn (corn (Zea mays); [17]): 0 | Plant response rating, Corn (corn (Zea mays); [18]): 0 | Plant response rating, Foxtail, Giant [11, 16]: 50 | Foxtail, Giant plant response rating ([11]; Postemergence, 500 g ai/ha): 90 | Plant response rating, Foxtail, Giant [11, 17]: 10 | Plant response rating, Foxtail, Giant [11, 18]: 80
